Like-named read-outs stand apart in the source and are kept apart here.
Experiments:
[1] = cited from earlier work
[2] = assay type: physicochemical
Text: However, if you want to dilute the solution of 7β-hydroxycholesterol/solvent in an aqueous liquid, e.g. for the provision of an infusion solution, the substance flocculates. Thus, the inventors use a solubilizing agent in order to maintain 7β-hydroxycholesterol in the later infusion solution in solution.

[3] = assay type: physicochemical; conditions: for decomposition of 7β-hydroxycholesterol after sterilization: sterilization at 120° C.
Description: The solution has been stored in glass vials.
A readily prepared infusion solution (on the basis of physiological saline solution) has been stored at room temperature (<25° C.) for 3 months.

[4] = cited from earlier work; for behaviour in aqueous solution over time: after several hours
[5] = test system: human cell lines of colon carcinoma; conditions: cited from earlier work
[6] = readily prepared infusion solution (physiological saline), room temperature (<25° C.), 3 months

Compound | solubility in water [1] | behaviour on dilution of solvent solution in aqueous liquid [2] | solubility in water soluble organic solvent [2] | stability of solution in water soluble organic solvent [2] | decomposition of 7β-hydroxycholesterol on storage ([3]; concentrate stored at 40° C. for 3 months in glass vials) | decomposition of 7β-hydroxycholesterol after sterilization ([3]; concentrate) | decomposition of 7β-hydroxycholesterol after sterilization ([3]; readily prepared infusion solution (physiological saline solution)) | appearance / flocculation of solution on storage [3, 6] | decrease of content of 7β-hydroxycholesterol by HPLC after storage [3, 6] | behaviour in aqueous solution over time [4] | stability in aqueous solution [4] | water solubility [4] | induction of apoptosis [5]
CC(C)CCC[C@@H](C)[C@H]1CC[C@H]2[C@@H]3[C@@H](O)C=C4C[C@@H](O)CC[C@]4(C)[C@H]3CC[C@]12C [7β-hydroxycholesterol] | insoluble in water | flocculates | excellent solubility | remain stable for years | did not show a decomposition | remained stable | remained stable | remained clear, there was no flocculation | could not be determined |  |  |  | 
CC(C)CCC[C@@H](C)[C@H]1CC[C@H]2[C@@H]3[C@@H](OC(=O)CCC(=O)[O-])C=C4C[C@@H](OC(=O)CCC(=O)[O-])CC[C@]4(C)[C@H]3CC[C@]12C.[Na+].[Na+] [7β-hydroxycholesteryl-bishemisuccinate-disodium] |  |  |  |  |  |  |  |  |  | starts to decompose and to flocculate | instable | water soluble | induction of apoptosis
hydroxycholesteryl-bishemisuccinate-diethanolamine |  |  |  |  |  |  |  |  |  | starts to decompose and to flocculate | instable |  | induction of apoptosis

Reference: patent publication US10179138B2, “Pharmaceutical composition comprising 7β-hydroxycholesterol intravenous administration” (Immunopharm AG, priority 2016, dated 2019)
